Results from ChEMBL document CHEMBL2034889, “The design and synthesis of novel, potent and orally bioavailable N-aryl piperazine-1-carboxamide CCR2 antagonists with very high hERG selectivity” (Bioorg Med Chem Lett, 2012).
Values after ≈ are worked out from the molar mass of the structure shown. Blank lines part the entries; values can stand above or below the compound they belong to. Active and inactive are the calls of the source. The rule behind the calls is not given here.

Experiments:
[1] = target: T1, Voltage-gated inwardly rectifying potassium channel KCNH2 (Homo sapiens, UniProt Q12809)
[2] = target: T2, C-C chemokine receptor type 2 (Homo sapiens, UniProt P41597); experiment: Displacement of 125I-MCP1 from human CCR2 receptor expressed in human THP-1 cell membrane by SPA assay; type: cell membranes
[3] = target: T2, C-C chemokine receptor type 2; experiment: Antagonist activity at human CCR2 receptor expressed in human THP-1 cells assessed as inhibition of MCP1-induced Ca2+ flux by FLIPR analysis; type: functional, cell-based
[4] = Antagonist activity at dog CCR2 receptor expressed in human THP-1 cells assessed as inhibition of MCP1-induced Ca2+ flux by FLIPR analysis; type: functional, cell-based
[5] = Half life in dog at 4 umol/kg, iv; type: ADME, organism-based, Canis lupus familiaris; settings: in vivo
[6] = Half life in rat at 4 umol/kg, iv; type: ADME, organism-based; settings: in vivo
[7] = Intrinsic clearance in human hepatocytes assessed per 10^6 cells; type: ADME, cell-based, Hepatocyte; settings: read-out: CLH
[8] = Oral bioavailability in rat at 11 umol/kg; type: ADME, organism-based; settings: in vivo
[9] = Lipophilicity, log P of the compound at pH 7.4; type: physicochemical; settings: buffer
[10] = Volume of distribution at steady state in dog at 4 umol/kg, iv; type: ADME, organism-based, Canis lupus familiaris; settings: in vivo, read-out: Vdss
[11] = target: T3, C-C chemokine receptor type 2 (Rattus norvegicus, UniProt O55193); experiment: Antagonist activity at rat CCR2 receptor expressed in human THP-1 cells assessed as inhibition of MCP1-induced Ca2+ flux by FLIPR analysis; type: functional, cell-based
T3 sequence (O55193 whole entry): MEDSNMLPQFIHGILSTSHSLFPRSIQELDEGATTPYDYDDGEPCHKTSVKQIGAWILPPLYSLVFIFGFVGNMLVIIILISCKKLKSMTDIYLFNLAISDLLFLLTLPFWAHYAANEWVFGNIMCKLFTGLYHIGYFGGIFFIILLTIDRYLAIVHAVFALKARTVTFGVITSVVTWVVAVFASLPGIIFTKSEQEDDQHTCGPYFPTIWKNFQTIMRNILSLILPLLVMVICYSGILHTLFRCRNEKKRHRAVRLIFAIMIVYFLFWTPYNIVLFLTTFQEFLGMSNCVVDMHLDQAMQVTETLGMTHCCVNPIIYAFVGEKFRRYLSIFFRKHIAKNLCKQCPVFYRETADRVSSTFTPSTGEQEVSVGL

[12] = Volume of distribution at steady state in rat at 4 umol/kg, iv; type: ADME, organism-based; settings: in vivo, read-out: Vdss
[13] = Clearance in dog at 4 umol/kg, iv; type: ADME, organism-based, Canis lupus familiaris; settings: in vivo
[14] = target: T2, C-C chemokine receptor type 2; experiment: Antagonist activity at human CCR2 in human peripheral whole blood assessed as inhibition of MCP1-induced L-selectin shedding; type: functional, tissue-based; settings: read-out: pA2 (converted)
[15] = Intrinsic clearance in dog hepatocytes assessed per 10^6 cells; type: ADME, cell-based, Canis lupus familiaris, Hepatocyte; settings: read-out: CLH
[16] = Intrinsic clearance in rat hepatocytes assessed per 10^6 cells; type: ADME, cell-based, Hepatocyte; settings: read-out: CLH
[17] = target: T4, C-X-C chemokine receptor type 5 (Homo sapiens) (UniProt P32302); experiment: Inhibition of human CXCR5 by FLIPR analysis
T4 sequence (whole entry): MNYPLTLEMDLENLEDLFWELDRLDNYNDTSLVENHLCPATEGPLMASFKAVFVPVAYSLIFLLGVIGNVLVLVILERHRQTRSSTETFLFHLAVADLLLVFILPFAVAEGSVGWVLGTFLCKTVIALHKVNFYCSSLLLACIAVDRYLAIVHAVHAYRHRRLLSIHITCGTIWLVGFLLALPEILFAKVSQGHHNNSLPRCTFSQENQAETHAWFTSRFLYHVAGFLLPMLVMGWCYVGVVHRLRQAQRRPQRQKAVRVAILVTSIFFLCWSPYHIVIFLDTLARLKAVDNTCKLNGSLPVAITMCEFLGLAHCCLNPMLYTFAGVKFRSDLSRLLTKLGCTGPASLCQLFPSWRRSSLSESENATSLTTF

[18] = Dissociation constant, pKa of the compound; type: physicochemical
[19] = target: C-C chemokine receptor type 5 (Homo sapiens, UniProt P51681); experiment: Inhibition of human CCR5 by FLIPR analysis
[20] = Oral bioavailability in dog at 4 umol/kg; type: ADME, organism-based, Canis lupus familiaris; settings: in vivo
[21] = Clearance in rat at 4 umol/kg, iv; type: ADME, organism-based; settings: in vivo
[22] = target: C-C chemokine receptor type 2 (Mus musculus, UniProt P51683); experiment: Antagonist activity at mouse CCR2 receptor expressed in human THP-1 cells assessed as inhibition of MCP1-induced Ca2+ flux by FLIPR analysis; type: functional, cell-based
[23] = Aqueous solubility of the compound; type: physicochemical; settings: buffer
[24] = target: C-C chemokine receptor type 8 (Homo sapiens) (UniProt P51685); experiment: Inhibition of human CCR8 by FLIPR analysis
[25] = target: T1, Voltage-gated inwardly rectifying potassium channel KCNH2; experiment: Inhibition of human ERG by electrophysiology assay
[26] = Lipophilicity, log D of the compound at pH 7.4; type: physicochemical; settings: buffer
[27] = target: C-X-C chemokine receptor type 4 (Homo sapiens) (UniProt P61073); experiment: Inhibition of human CXCR4 by FLIPR analysis
[28] = target: T5, C-C chemokine receptor type 1 (Homo sapiens) (UniProt P32246); experiment: Inhibition of human CCR1 by FLIPR analysis
T5 sequence (whole entry): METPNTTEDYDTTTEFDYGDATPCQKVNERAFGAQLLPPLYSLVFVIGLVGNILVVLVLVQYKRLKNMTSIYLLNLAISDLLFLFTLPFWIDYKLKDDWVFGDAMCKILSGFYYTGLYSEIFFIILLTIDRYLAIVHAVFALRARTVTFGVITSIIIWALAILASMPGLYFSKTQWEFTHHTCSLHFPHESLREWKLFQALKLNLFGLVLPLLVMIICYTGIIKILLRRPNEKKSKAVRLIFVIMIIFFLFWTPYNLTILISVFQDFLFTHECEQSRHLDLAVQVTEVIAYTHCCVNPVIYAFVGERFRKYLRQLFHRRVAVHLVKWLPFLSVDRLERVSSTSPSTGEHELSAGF

[29] = Fraction unbound in rat plasma; type: ADME, cell-free
[30] = Volume of distribution in rat; type: ADME, organism-based; settings: in vivo
[31] = Intrinsic clearance in human microsomes assessed per mg of protein; type: ADME, Microsome
Cytochrome P450 2D6 = Cytochrome P450 2D6 (Homo sapiens, UniProt P10635); experiment: Inhibition of CYP2D6; type: ADME
[32] = Oral bioavailability in rat; type: ADME, organism-based; settings: in vivo
Cytochrome P450 3A4 = Cytochrome P450 3A4 (Homo sapiens, UniProt P08684); experiment: Inhibition of CYP3A4; type: ADME
[33] = Aqueous solubility at pH 7. 4; type: physicochemical; settings: buffer
[34] = Clearance in iv dosed rat; type: ADME, organism-based; settings: in vivo
[35] = Half life in rat; type: ADME, organism-based; settings: in vivo
[36] = Fraction unbound in human plasma; type: ADME, cell-free

T1 sequence (Q12809 whole entry): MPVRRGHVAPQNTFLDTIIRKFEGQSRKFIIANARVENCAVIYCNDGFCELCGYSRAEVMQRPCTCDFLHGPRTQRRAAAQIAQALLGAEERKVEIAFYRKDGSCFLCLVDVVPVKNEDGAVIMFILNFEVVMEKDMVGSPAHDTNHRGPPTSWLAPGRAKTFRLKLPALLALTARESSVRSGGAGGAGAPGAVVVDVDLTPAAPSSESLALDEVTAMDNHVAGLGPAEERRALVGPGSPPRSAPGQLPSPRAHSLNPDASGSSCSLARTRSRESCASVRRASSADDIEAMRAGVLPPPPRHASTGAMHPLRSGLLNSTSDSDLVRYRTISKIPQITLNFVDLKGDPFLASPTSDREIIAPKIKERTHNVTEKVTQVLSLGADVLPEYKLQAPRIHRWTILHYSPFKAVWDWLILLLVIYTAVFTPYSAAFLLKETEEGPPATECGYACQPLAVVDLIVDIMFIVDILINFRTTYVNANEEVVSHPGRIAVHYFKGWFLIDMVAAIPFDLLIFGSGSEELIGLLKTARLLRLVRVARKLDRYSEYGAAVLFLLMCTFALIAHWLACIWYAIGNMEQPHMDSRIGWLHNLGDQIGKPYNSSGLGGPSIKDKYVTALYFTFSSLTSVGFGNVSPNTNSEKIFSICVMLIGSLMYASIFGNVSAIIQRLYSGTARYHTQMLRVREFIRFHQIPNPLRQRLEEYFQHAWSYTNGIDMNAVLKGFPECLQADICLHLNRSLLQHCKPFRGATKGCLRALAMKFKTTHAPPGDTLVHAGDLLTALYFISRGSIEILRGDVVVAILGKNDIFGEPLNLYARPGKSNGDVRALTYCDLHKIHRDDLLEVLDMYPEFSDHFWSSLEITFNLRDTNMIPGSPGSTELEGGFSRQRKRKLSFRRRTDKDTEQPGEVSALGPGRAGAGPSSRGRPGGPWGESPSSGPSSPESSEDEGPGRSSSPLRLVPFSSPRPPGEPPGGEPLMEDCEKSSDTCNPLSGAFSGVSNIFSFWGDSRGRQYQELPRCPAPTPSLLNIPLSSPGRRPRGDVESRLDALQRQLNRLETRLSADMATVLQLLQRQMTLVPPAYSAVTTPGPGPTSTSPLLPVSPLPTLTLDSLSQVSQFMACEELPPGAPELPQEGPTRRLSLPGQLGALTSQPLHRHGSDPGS
T2 sequence (P41597 whole entry): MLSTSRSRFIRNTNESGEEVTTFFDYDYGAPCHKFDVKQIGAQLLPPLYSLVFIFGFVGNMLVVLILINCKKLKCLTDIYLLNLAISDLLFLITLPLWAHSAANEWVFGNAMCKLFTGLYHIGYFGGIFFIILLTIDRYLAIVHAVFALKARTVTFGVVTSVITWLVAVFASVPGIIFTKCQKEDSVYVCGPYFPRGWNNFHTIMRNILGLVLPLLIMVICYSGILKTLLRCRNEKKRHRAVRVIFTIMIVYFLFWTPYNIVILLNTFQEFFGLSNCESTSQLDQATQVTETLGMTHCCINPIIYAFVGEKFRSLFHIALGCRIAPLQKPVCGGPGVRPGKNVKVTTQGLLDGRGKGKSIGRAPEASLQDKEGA
Sequence of C-C chemokine receptor type 2 (Mus musculus, UniProt P51683) (P51683 whole entry): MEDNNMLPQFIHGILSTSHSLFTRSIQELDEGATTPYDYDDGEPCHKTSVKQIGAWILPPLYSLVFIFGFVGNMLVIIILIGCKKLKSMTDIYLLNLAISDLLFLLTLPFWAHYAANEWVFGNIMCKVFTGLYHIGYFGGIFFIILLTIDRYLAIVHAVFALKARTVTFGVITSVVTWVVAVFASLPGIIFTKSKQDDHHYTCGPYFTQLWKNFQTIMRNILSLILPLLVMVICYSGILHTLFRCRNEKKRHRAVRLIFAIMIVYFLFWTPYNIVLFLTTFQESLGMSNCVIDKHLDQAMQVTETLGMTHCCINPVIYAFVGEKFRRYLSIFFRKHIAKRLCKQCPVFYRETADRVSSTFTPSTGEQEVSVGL
Sequence of Cytochrome P450 2D6 (P10635 whole entry): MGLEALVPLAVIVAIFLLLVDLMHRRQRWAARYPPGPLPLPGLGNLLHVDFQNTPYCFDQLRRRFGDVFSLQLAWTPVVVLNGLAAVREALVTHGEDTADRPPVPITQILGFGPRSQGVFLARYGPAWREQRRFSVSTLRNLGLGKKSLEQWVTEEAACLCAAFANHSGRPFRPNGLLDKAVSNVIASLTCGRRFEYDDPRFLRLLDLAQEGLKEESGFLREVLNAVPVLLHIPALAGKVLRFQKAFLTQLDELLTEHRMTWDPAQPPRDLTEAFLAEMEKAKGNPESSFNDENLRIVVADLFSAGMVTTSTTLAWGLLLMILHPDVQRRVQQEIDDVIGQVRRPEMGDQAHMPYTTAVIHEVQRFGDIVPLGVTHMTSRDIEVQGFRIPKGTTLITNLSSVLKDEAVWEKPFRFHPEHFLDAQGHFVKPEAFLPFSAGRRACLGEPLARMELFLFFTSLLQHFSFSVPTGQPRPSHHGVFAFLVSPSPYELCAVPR
Sequence of C-C chemokine receptor type 8 (Homo sapiens) (P51685 whole entry): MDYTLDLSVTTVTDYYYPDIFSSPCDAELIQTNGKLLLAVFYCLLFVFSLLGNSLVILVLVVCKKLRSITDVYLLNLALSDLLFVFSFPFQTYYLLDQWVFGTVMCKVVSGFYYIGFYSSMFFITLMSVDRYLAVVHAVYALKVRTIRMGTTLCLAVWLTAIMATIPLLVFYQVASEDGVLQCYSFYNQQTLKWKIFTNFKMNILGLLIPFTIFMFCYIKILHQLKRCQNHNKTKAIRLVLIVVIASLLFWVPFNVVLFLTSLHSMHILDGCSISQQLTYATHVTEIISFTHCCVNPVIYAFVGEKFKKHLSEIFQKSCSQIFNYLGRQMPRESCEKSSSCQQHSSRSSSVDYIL
Sequence of C-C chemokine receptor type 5 (P51681 whole entry): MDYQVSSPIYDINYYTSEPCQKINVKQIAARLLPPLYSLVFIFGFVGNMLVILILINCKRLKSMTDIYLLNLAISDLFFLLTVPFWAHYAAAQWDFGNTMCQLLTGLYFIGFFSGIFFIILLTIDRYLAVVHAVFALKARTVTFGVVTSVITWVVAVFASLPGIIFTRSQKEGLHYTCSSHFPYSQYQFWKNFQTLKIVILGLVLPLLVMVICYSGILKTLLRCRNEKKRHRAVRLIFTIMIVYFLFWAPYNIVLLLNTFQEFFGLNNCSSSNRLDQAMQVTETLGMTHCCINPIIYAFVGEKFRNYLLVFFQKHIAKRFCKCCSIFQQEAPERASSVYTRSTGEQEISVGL
Sequence of Cytochrome P450 3A4 (P08684 whole entry): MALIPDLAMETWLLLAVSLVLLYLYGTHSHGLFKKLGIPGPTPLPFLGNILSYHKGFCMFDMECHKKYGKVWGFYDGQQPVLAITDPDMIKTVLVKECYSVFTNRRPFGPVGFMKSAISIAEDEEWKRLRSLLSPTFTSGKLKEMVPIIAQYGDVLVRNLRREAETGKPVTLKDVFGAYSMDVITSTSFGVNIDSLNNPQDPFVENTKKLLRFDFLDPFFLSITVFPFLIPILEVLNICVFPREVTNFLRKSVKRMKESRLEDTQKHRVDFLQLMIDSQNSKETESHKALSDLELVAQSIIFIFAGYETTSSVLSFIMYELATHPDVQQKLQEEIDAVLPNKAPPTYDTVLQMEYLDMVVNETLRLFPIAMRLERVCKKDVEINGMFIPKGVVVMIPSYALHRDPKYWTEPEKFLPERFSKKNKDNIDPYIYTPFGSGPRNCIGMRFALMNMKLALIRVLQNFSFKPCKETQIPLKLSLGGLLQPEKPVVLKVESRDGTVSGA
Sequence of C-X-C chemokine receptor type 4 (Homo sapiens) (P61073 whole entry): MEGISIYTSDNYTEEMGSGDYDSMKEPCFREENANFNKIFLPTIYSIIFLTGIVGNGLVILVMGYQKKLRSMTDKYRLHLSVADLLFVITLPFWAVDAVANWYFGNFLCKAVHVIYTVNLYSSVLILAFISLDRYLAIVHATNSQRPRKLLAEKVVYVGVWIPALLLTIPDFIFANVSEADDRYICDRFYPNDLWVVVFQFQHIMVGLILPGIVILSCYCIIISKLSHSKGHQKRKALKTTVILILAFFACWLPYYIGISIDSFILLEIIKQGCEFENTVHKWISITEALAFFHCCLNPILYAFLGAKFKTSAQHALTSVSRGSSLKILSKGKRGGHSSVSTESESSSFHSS

IC50 [2]: 64 nM | IC50 [3]: 277 nM
Structure (SMILES): CCN1CCO[C@@H](CN2CCN(C(=O)Nc3ccc(Cl)c(Cl)c3)CC2)C1
IC50 [1]: 7900 nM

IC50 [2]: 64 nM | IC50 [3]: 280 nM
Structure (SMILES): O=C(Nc1ccc(Cl)c(Cl)c1)N1CCN(C[C@@H]2CCCN(CCCc3ccccc3)C2)CC1
IC50 [1]: 400 nM

IC50 [4]: 1600 nM | half-life [5]: 9.1 h | half-life [6]: 3 h | hepatocyte CLint [7]: < 2 µL/min/1e6 cells | bioavailability [8]: 11% | logD [9]: 2.7 | Vd [10]: 8.5 L/kg | IC50 [11]: 200 nM | Vd [12]: 4 L/kg | clearance [13]: 17 mL/min/kg | IC50 [2]: 3.5 nM | Kb [14]: 3.47 nM | hepatocyte CLint [15]: < 2 µL/min/1e6 cells | hepatocyte CLint [16]: < 2 µL/min/1e6 cells | inhibition [17]: inactive | pKa [18]: 7.8 | IC50 [19]: 22 nM | bioavailability [20]: 83% | clearance [21]: 30 mL/min/kg | IC50 [22]: 1200 nM | solubility [23]: > 3100 µM | IC50 [3]: 5.8 nM | inhibition [24]: inactive | logD [26]: 2.21 | inhibition [27]: inactive | inhibition [28]: inactive
Structure (SMILES): CC(C)N1CCN[C@@H](C(=O)N2CCN(C(=O)Nc3ccc(Cl)c(Cl)c3)CC2)C1
IC50 [1]: 17000 nM | IC50 [25]: 60000 nM

IC50 [2]: 17 nM | IC50 [3]: 31 nM
Structure (SMILES): O=C(Nc1ccc(C(F)(F)F)c(Cl)c1)N1CCN(C[C@@H]2CCCN(C3CC3)C2)CC1

IC50 [2]: 26 nM | IC50 [3]: 32 nM
Structure (SMILES): CC(C)N1CCN[C@@H](CN2CCN(C(=O)Nc3ccc(Cl)c(Cl)c3)CC2)C1

IC50 [2]: > 10000 nM
Structure (SMILES): CS(=O)(=O)c1cccc(NC(=O)N2CCN(C[C@@H]3CCCN(C4CC4)C3)CC2)c1

IC50 [2]: 35 nM | IC50 [3]: 421 nM
Structure (SMILES): O=C(Nc1ccc(Cl)c(C(F)(F)F)c1)N1CCN(C[C@@H]2CCCN(C3CC3)C2)CC1
IC50 [1]: 6300 nM

IC50 [2]: 37 nM | IC50 [3]: 174 nM
Structure (SMILES): CCN1CCC[C@@H](CN2CCN(C(=O)Nc3ccc(Cl)c(Cl)c3)CC2)C1
IC50 [1]: 2100 nM

IC50 [2]: 797 nM
Structure (SMILES): CCN1CCNC(CN2CCN(C(=O)Nc3ccc(Cl)c(Cl)c3)CC2)C1 (racemic)
IC50 [1]: 8900 nM

IC50 [2]: 58 nM | IC50 [3]: 162 nM
Structure (SMILES): O=C(Nc1ccc(Br)cc1)N1CCN(C[C@@H]2CCCN(C3CC3)C2)CC1
IC50 [1]: 7100 nM

IC50 [2]: 68 nM | IC50 [3]: 593 nM
Structure (SMILES): O=C(Nc1ccc(C(F)(F)F)cc1)N1CCN(C[C@@H]2CCCN(C3CC3)C2)CC1

IC50 [2]: 99 nM | IC50 [3]: 244 nM
Structure (SMILES): O=C(Nc1ccc(Cl)c(Cl)c1)N1CCN(C[C@@H]2CCCN(Cc3ccccc3)C2)CC1

IC50 [2]: 50 nM | IC50 [3]: 75 nM
Structure (SMILES): O=C(Nc1ccc(F)c(Cl)c1)N1CCN(C[C@@H]2CCCN(C3CC3)C2)CC1
IC50 [1]: 14000 nM

IC50 [2]: 98 nM | IC50 [3]: 578 nM
Structure (SMILES): O=C(Nc1cccc(C(F)(F)F)c1)N1CCN(C[C@@H]2CCCN(C3CC3)C2)CC1
IC50 [1]: 13000 nM

IC50 [2]: 32 nM | IC50 [3]: 38 nM
Structure (SMILES): O=C(Nc1ccc(Cl)c(Cl)c1)N1CCN(C(=O)[C@H]2CN(C3CC3)CCN2)CC1
IC50 [1]: 19000 nM

IC50 [2]: 1180 nM
Structure (SMILES): CCN1CCC[C@H](CN2CCN(C(=O)Nc3ccc(Cl)c(Cl)c3)CC2)C1

fraction unbound [29]: 0.05 | Vd [30]: 8 L/kg | microsomal CLint [31]: 5 µL/min/mg | IC50 (Cytochrome P450 2D6): 3100 nM | IC50 [2]: 10 nM | bioavailability [32]: 11% | hepatocyte CLint [16]: 11 µL/min/1e6 cells | IC50 (Cytochrome P450 3A4): 1600 nM | solubility [33]: 290 µM (≈ 119 µg/mL) | clearance [34]: 24 mL/min/kg | half-life [35]: 5 h | IC50 [3]: 64 nM | fraction unbound [36]: 0.05
Structure (SMILES): O=C(Nc1ccc(Cl)c(Cl)c1)N1CCN(C[C@@H]2CCCN(C3CC3)C2)CC1

IC50 [2]: 21 nM | IC50 [3]: 55 nM
Structure (SMILES): CCN1CCN[C@@H](C(=O)N2CCN(C(=O)Nc3ccc(Cl)c(Cl)c3)CC2)C1

IC50 [2]: 171 nM | IC50 [3]: 202 nM
Structure (SMILES): O=C(Nc1cccc(Cl)c1)N1CCN(C[C@@H]2CCCN(C3CC3)C2)CC1
